From the supplement of paper PMC10307832

How the values were obtained:
Test in all cases: relative viability (nuclei count vs DMSO), 5 days (fraction); higher = more cells survive
[1] = compound: CCn1c(-c2nonc2N)nc2c(C#CC(C)(C)O)ncc(OC[C@H]3CCCNC3)c21
Outline: (§1)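 Only plates meeting two conditions passed: control CV below 25% and at least one doubling. Lung cancer cell lines, kept overnight at 37 °C in 1536-well plates, were pinned with five library-drug doses (not always all listed) √10 apart on vehicle-anchored plates and grown 5 days without medium change. A one-step fix, permeabilisation and Hoechst stain preceded 4× imaging and MetaXpress nuclear counting. Viability equals treated-well nuclei divided by vehicle-well nuclei, as the median over plates.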

BAM7 = compound: CCOC1=CC=CC=C1N=NC2=C(NN(C2=O)C3=NC(=CS3)C4=CC=CC=C4)C [BAM7]
Outline: as §1

[2] = compound: CCn1c(-c2nonc2N)nc2c(C#CC(C)(C)O)ncc(OC[C@H]3CCCNC3)c21 + Nc1nc2[nH]cc(CCc3ccc(C(=O)N[C@@H](CCC(=O)O)C(=O)O)cc3)c2c(=O)[nH]1 [Pemetrexed] (partner 0.2 µM)
Outline: (§2)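 Lung cancer cell lines, seeded in 1536-well plates, were treated the following day by pin tool with a single drug or with five library-drug doses (not always all listed) in √10 steps on top of a fixed anchor-drug dose. Cells were fixed and nuclei stained in one step after 5 days, and nuclei were counted. Relative viability is the nuclei count for treated wells divided by that for vehicle wells, reported as medians of duplicate plates.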

BAM7 + OSI-027 = compound: CCOC1=CC=CC=C1N=NC2=C(NN(C2=O)C3=NC(=CS3)C4=CC=CC=C4)C [BAM7] + COc1cccc2cc(-c3nc([C@H]4CC[C@H](C(=O)O)CC4)n4ncnc(N)c34)[nH]c12 [OSI-027] (partner 0.5 µM)
Outline: as §2

Row | Cell Line | relative viability ([1]; 0.01 µM) | relative viability ([1]; 0.03162 µM) | relative viability ([1]; 0.1 µM) | relative viability ([1]; 0.3162 µM) | relative viability ([1]; 1 µM) | relative viability (BAM7; 0.5 µM) | relative viability (BAM7; 5 µM) | relative viability (BAM7; 15.81 µM) | relative viability (BAM7; 50 µM) | relative viability ([2]; first compound 0.01 µM) | relative viability ([2]; first compound 0.03162 µM) | relative viability ([2]; first compound 0.1 µM) | relative viability ([2]; first compound 0.3162 µM) | relative viability ([2]; first compound 1 µM) | relative viability (BAM7 + OSI-027; first compound 0.5 µM) | relative viability (BAM7 + OSI-027; first compound 5 µM) | relative viability (BAM7 + OSI-027; first compound 15.81 µM) | relative viability (BAM7 + OSI-027; first compound 50 µM)
1 | HCC-366 | 0.993 | 1.05 | 0.805 | 0.998 | 0.99 | 1.04 | 1.04 | 1.03 | 1.02 | 0.183 | 0.179 | 0.195 | 0.172 | 0.182 | 0.879 | 0.839 | 0.729 | 0.784
2 | HCC-827 | 1.06 | 1.03 | 1 | 0.986 | 0.99 | 1.04 | 1.05 | 1.06 | 1.03 | 0.287 | 0.315 | 0.241 | 0.249 | 0.267 | 0.798 | 0.794 | 0.775 | 0.822
3 | HOP-62 | 0.989 | 0.945 | 1.01 | 0.976 | 1.01 | 1.03 | 1.09 | 1.07 | 1.07 | 0.289 | 0.407 | 0.289 | 0.288 | 0.286 | 0.888 | 0.87 | 0.808 | 0.92
4 | IA-LM | 1.01 | 1.05 | 1.01 | 0.852 | 0.853 | 0.988 | 0.979 | 0.85 | 1.15 |  |  |  |  |  |  |  |  | 
5 | LC-2-ad | 0.903 | 0.951 | 0.964 | 0.949 | 0.989 | 0.961 | 1 | 0.939 | 1.01 | 0.267 | 0.283 | 0.261 | 0.262 | 0.272 | 0.918 | 0.865 | 0.8 | 0.902
6 | LCLC-97TM1 | 0.989 | 1.01 | 1.16 | 0.854 | 0.944 | 1.12 | 1.12 | 1.09 | 1.06 | 0.169 | 0.179 | 0.141 | 0.147 | 0.175 | 0.699 | 0.469 | 0.505 | 0.677
7 | LCLC-103H | 0.964 | 0.988 | 0.929 | 0.938 | 1.09 | 0.966 | 1.04 | 0.983 | 1.04 | 0.449 | 0.498 | 0.476 | 0.456 | 0.439 | 0.366 | 0.505 | 0.504 | 0.537
8 | LK-2 | 0.889 | 1.06 | 0.815 | 0.913 | 0.872 | 1.03 | 1.13 | 1.04 | 1.1 | 0.277 | 0.333 | 0.269 | 0.204 | 0.234 | 0.206 | 0.205 | 0.225 | 0.218
9 | LOU-NH91 | 1 | 0.924 | 0.989 | 0.9 | 0.888 | 0.974 | 1.06 | 0.939 | 0.973 | 0.403 | 0.366 | 0.419 | 0.4 | 0.399 | 0.717 | 0.729 | 0.729 | 0.801
10 | LU99A | 1.07 | 1.13 | 0.889 | 0.854 | 0.922 | 1.09 | 1.02 | 0.979 | 1.07 | 0.182 | 0.201 | 0.154 | 0.141 | 0.193 | 0.256 | 0.29 | 0.347 | 0.322
11 | LXF-289 | 1.03 | 0.991 | 1.03 | 0.972 | 1.11 | 1.06 | 1.07 | 1.01 | 0.929 | 0.922 | 0.95 | 0.925 | 0.84 | 0.938 | 0.923 | 0.909 | 0.761 | 0.802
12 | NCI-H23 | 0.918 | 0.939 | 0.878 | 0.902 | 0.852 | 1.21 | 1.06 | 1.04 | 1.06 | 0.647 | 0.642 | 0.58 | 0.579 | 0.611 | 0.492 | 0.561 | 0.451 | 0.526
13 | NCI-H322M | 0.887 | 0.763 | 0.839 | 0.827 | 0.828 | 0.922 | 0.96 | 1 | 0.991 | 0.634 | 0.571 | 0.556 | 0.568 | 0.571 | 0.576 | 0.617 | 0.57 | 0.65
14 | NCI-H358 | 0.905 | 1.01 | 0.935 | 0.912 | 0.913 | 0.96 | 1.19 | 0.942 | 0.912 | 0.231 | 0.192 | 0.176 | 0.182 | 0.166 | 0.832 | 0.899 | 0.796 | 0.908
15 | NCI-H441 | 0.927 | 1.05 | 1.04 | 0.948 | 0.99 | 1.16 | 1.06 | 1.1 | 1.44 | 0.295 | 0.251 | 0.228 | 0.234 | 0.272 | 0.578 | 0.574 | 0.639 | 0.694
16 | NCI-H460 | 0.977 | 0.983 | 0.983 | 0.998 | 0.949 | 1.02 | 0.989 | 0.895 | 0.969 | 0.0616 | 0.0628 | 0.063 | 0.0642 | 0.0565 | 0.525 | 0.468 | 0.55 | 0.624
17 | NCI-H727 | 1.02 | 0.866 | 0.871 | 0.848 | 0.973 | 0.962 | 0.811 | 0.881 | 0.937 |  |  |  |  |  | 0.591 | 0.509 | 0.523 | 0.738
18 | NCI-H1299 | 0.984 | 1.05 | 1.01 | 1.01 | 1.04 | 1.01 | 1.06 | 1.01 | 1.01 |  |  |  |  |  |  |  |  | 
19 | NCI-H1623 | 1.07 | 1.02 | 0.963 | 0.967 | 1.09 | 1.06 | 0.974 | 0.768 | 0.896 |  |  |  |  |  | 0.422 | 0.383 | 0.368 | 0.349
20 | NCI-H1703 | 0.828 | 0.973 | 0.839 | 0.788 | 0.612 | 1.04 | 0.989 | 0.808 | 1 |  |  |  |  |  |  |  |  | 
